Measured values: patent publication US9499550B2 (BRISTOL-MYERS SQUIBB COMPANY, priority 2012, dated 2016)
Where two headings read alike, the source gives them in different places.

Key:
[1] = system: HCV genotype 1b (Con1) replicon in HUH-7 cells; assay: HCV replicon luciferase reporter assay, genotype 1b; format: cell-based; details: Hepatitis C virus, Huh-7, 72 h, HCV genotype 1b replicon luciferase assay, 3 days incubation
Method in brief: (§1)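 Replicon inhibition for both genotypes was measured as Renilla luciferase signal (EnduRen, 7.5 μM final, 2 h) after 3-day, 37° C exposure of replicon-bearing HUH-7 cells in 4% FCS DMEM, 0.5% DMSO. The 1b construct carries S1179I; the 1a H77 construct carries P1496L and S2204I. Twenty-point, 3-fold dilutions were fitted four-parametrically for EC50, and CC50 was taken from multiplexed Cell Titer-Blue.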

[2] = system: HCV genotype 1a (H77 strain) replicon in HUH-7 cells; assay: HCV replicon luciferase reporter assay, genotype 1a; format: cell-based; details: Hepatitis C virus, Huh-7, 72 h, HCV genotype 1a replicon luciferase assay, 3 days incubation
Method in brief: as §1

[3] = range class, read-out: LE_1b (EC50, range)
[4] = range class, read-out: LE_1a (EC50, range)

Row | SMILES | EC50 [1, 3] [nM] | EC50 [2, 4] [nM] | EC50 ([1]; read-out: LE_1b (EC50)) [nM] | EC50 ([2]; read-out: LE_1a (EC50)) [nM]
1 | CC(C)n1nc(O[C@@H]2C[C@H]3C(=O)N[C@]4(C(=O)NS(=O)(=O)C5CC5)C[C@H]4/C=C\CC[C@H](C)C[C@@H](C)[C@H](NC(=O)OC(C)(C)C(C)(F)F)C(=O)N3C2)c2ccccc2c1=O [Compound 1017, 3,3-difluoro-2-methylbutan-2-yl((2R,6S,7R,9S,13aS,14aR,16aS,Z)-14a-((cyclopropylsulfonyl)carbamoyl)-2-((3-isopropyl-4-oxo-3,4-dihydrophthalazin-1-yl)oxy)-7,9-dimethyl-5,16-dioxo-1,2,3,5,6,7,8,9,10,11,13a,14,14a,15,16,16a-hexadecahydrocyclopropa[e]pyrrolo[1,2-a][1,4]diazacyclopentadecin-6-yl)carbamate] | > 87.4 | > 87.4 | – | –
2 | CC(C)n1nc(O[C@@H]2C[C@H]3C(=O)N[C@]4(C(=O)NS(=O)(=O)C5CC5)C[C@H]4/C=C\CC[C@@H](C)C[C@@H](C)[C@H](NC(=O)OC(C)(C)C(C)(F)F)C(=O)N3C2)c2ccccc2c1=O [Compound 1018, 3,3-difluoro-2-methylbutan-2-yl((2R,6S,7R,9R,13aS,14aR,16aS,Z)-14a-((cyclopropylsulfonyl)carbamoyl)-2-((3-isopropyl-4-oxo-3,4-dihydrophthalazin-1-yl)oxy)-7,9-dimethyl-5,16-dioxo-1,2,3,5,6,7,8,9,10,11,13a,14,14a,15,16,16a-hexadecahydrocyclopropa[e]pyrrolo[1,2-a][1,4]diazacyclopentadecin-6-yl)carbamate] | 4.82 to 103 | 4.82 to 103 | – | –
3 | COCCn1nc(O[C@@H]2C[C@H]3C(=O)N[C@]4(C(=O)NS(=O)(=O)C5(C)CC5)C[C@H]4/C=C\CC[C@H](C)C[C@@H](C)[C@H](NC(=O)OC(C)(C)C(C)(F)F)C(=O)N3C2)c2ccccc2c1=O [Compound 1019, 3,3-difluoro-2-methylbutan-2-yl((2R,6S,7R,9S,13aS,14aR,16aS,Z)-2-((3-(2-methoxyethyl)-4-oxo-3,4-dihydrophthalazin-1-yl)oxy)-7,9-dimethyl-14a-(((1-methylcyclopropyl)sulfonyl)carbamoyl)-5,16-dioxo-1,2,3,5,6,7,8,9,10,11,13a,14,14a,15,16,16a-hexadecahydrocyclopropa[e]pyrrolo[1,2-a][1,4]diazacyclopentadecin-6-yl)carbamate] | > 87.4 | > 87.4 | 506 | ≥ 1000
4 | COCCn1nc(O[C@@H]2C[C@H]3C(=O)N[C@]4(C(=O)NS(=O)(=O)C5(C)CC5)C[C@H]4/C=C\CC[C@@H](C)C[C@@H](C)[C@H](NC(=O)OC(C)(C)C(C)(F)F)C(=O)N3C2)c2ccccc2c1=O [Compound 1020, 3,3-difluoro-2-methylbutan-2-yl((2R,6S,7R,9R,13aS,14aR,16aS,Z)-2-((3-(2-methoxyethyl)-4-oxo-3,4-dihydrophthalazin-1-yl)oxy)-7,9-dimethyl-14a-(((1-methylcyclopropyl)sulfonyl)carbamoyl)-5,16-dioxo-1,2,3,5,6,7,8,9,10,11,13a,14,14a,15,16,16a-hexadecahydrocyclopropa[e]pyrrolo[1,2-a][1,4]diazacyclopentadecin-6-yl)carbamate] | 4.82 to 103 | 4.82 to 103 | – | –
5 | COCCn1nc(O[C@@H]2C[C@H]3C(=O)N[C@]4(C(=O)NS(=O)(=O)C5CC5)C[C@H]4/C=C\CC[C@H](C)C[C@@H](C)[C@H](NC(=O)OC(C)(C)C(F)(F)F)C(=O)N3C2)c2ccccc2c1=O [Compound 1021, 1,1,1-trifluoro-2-methylpropan-2-yl((2R,6S,7R,9S,13aS,14aR,16aS,Z)-14a-((cyclopropylsulfonyl)carbamoyl)-2-((3-(2-methoxyethyl)-4-oxo-3,4-dihydrophthalazin-1-yl)oxy)-7,9-dimethyl-5,16-dioxo-1,2,3,5,6,7,8,9,10,11,13a,14,14a,15,16,16a-hexadecahydrocyclopropa[e]pyrrolo[1,2-a][1,4]diazacyclopentadecin-6-yl)carbamate] | > 87.4 | > 87.4 | – | –
6 | COCCn1nc(O[C@@H]2C[C@H]3C(=O)N[C@]4(C(=O)NS(=O)(=O)C5CC5)C[C@H]4/C=C\CC[C@@H](C)C[C@@H](C)[C@H](NC(=O)OC(C)(C)C(F)(F)F)C(=O)N3C2)c2ccccc2c1=O [Compound 1022, 1,1,1-trifluoro-2-methylpropan-2-yl((2R,6S,7R,9R,13aS,14aR,16aS,Z)-14a-((cyclopropylsulfonyl)carbamoyl)-2-((3-(2-methoxyethyl)-4-oxo-3,4-dihydrophthalazin-1-yl)oxy)-7,9-dimethyl-5,16-dioxo-1,2,3,5,6,7,8,9,10,11,13a,14,14a,15,16,16a-hexadecahydrocyclopropa[e]pyrrolo[1,2-a][1,4]diazacyclopentadecin-6-yl)carbamate] | 4.82 to 103 | 4.82 to 103 | – | –
7 | COCCn1nc(O[C@@H]2C[C@H]3C(=O)N[C@]4(C(=O)NS(=O)(=O)C5CC5)C[C@H]4/C=C\CC[C@@H](C)C[C@@H](C)[C@H](NC(=O)OC(C)(C)C(C)(F)F)C(=O)N3C2)c2ccccc2c1=O [Compound 1024, 3,3-difluoro-2-methylbutan-2-yl((2R,6S,7R,9R,13aS,14aR,16aS,Z)-14a-((cyclopropylsulfonyl)carbamoyl)-2-((3-(2-methoxyethyl)-4-oxo-3,4-dihydrophthalazin-1-yl)oxy)-7,9-dimethyl-5,16-dioxo-1,2,3,5,6,7,8,9,10,11,13a,14,14a,15,16,16a-hexadecahydrocyclopropa[e]pyrrolo[1,2-a][1,4]diazacyclopentadecin-6-yl)carbamate] | 4.82 to 103 | 4.82 to 103 | – | –
8 | C[C@H]1CC/C=C\[C@@H]2C[C@@]2(C(=O)NS(=O)(=O)C2(C)CC2)NC(=O)[C@@H]2C[C@@H](Oc3ncc(OCC(F)F)c4ccccc34)CN2C(=O)[C@@H](NC(=O)OC(C)(C)C)[C@H](C)C1 [Compound 1025, tert-butyl ((2R,6S,7R,9S,13aS,14aR,16aS,Z)-2-((4-(2,2-difluoroethoxyl)isoquinolin-1-yl)oxy)-7,9-dimethyl-14a-(((1-methylcyclopropyl)sulfonyl)carbamoyl)-5,16-dioxo-1,2,3,5,6,7,8,9,10,11,13a,14,14a,15,16,16a-hexadecahydrocyclopropa[e]pyrrolo[1,2-a][1,4]diazacyclopentadecin-6-yl)carbamate] | < 5.46 | 4.82 to 103 | – | –
9 | C[C@@H]1CC/C=C\[C@@H]2C[C@@]2(C(=O)NS(=O)(=O)C2(C)CC2)NC(=O)[C@@H]2C[C@@H](Oc3ncc(OCC(F)F)c4ccccc34)CN2C(=O)[C@@H](NC(=O)OC(C)(C)C)[C@H](C)C1 [Compound 1026, tert-butyl ((2R,6S,7R,9R,13aS,14aR,16aS,Z)-2-((4-(2,2-difluoroethoxyl)isoquinolin-1-yl)oxy)-7,9-dimethyl-14a-(((1-methylcyclopropyl)sulfonyl)carbamoyl)-5,16-dioxo-1,2,3,5,6,7,8,9,10,11,13a,14,14a,15,16,16a-hexadecahydrocyclopropa[e]pyrrolo[1,2-a][1,4]diazacyclopentadecin-6-yl)carbamate] | < 5.46 | < 5.46 | – | –
10 | COCCOc1cnc(O[C@@H]2C[C@H]3C(=O)N[C@]4(C(=O)NS(=O)(=O)C5(C)CC5)C[C@H]4/C=C\CC[C@@H](C)C[C@@H](C)[C@H](NC(=O)OC(C)(C)C)C(=O)N3C2)c2ccccc12 [Compound 1027, tert-butyl ((2R,6S,7R,9R,13aS,14aR,16aS,Z)-2-((4-(2-methoxyethoxyl)isoquinolin-1-yl)oxy)-7,9-dimethyl-14a-(((1-methylcyclopropyl)sulfonyl)carbamoyl)-5,16-dioxo-1,2,3,5,6,7,8,9,10,11,13a,14,14a,15,16,16a-hexadecahydrocyclopropa[e]pyrrolo[1,2-a][1,4]diazacyclopentadecin-6-yl)carbamate] | < 5.46 | < 5.46 | – | –
11 | C[C@@H]1CC/C=C\[C@@H]2C[C@@]2(C(=O)NS(=O)(=O)C2CC2)NC(=O)[C@@H]2C[C@@H](Oc3ncc(OCC(F)F)c4ccccc34)CN2C(=O)[C@@H](NC(=O)OC(C)(C)C)[C@H](C)C1 [Compound 1028, tert-butyl ((2R,6S,7R,9R,13aS,14aR,16aS,Z)-14a-((cyclopropylsulfonyl)carbamoyl)-2-((4-(2,2-difluoroethoxyl)isoquinolin-1-yl)oxy)-7,9-dimethyl-5,16-dioxo-1,2,3,5,6,7,8,9,10,11,13a,14,14a,15,16,16a-hexadecahydrocyclopropa[e]pyrrolo[1,2-a][1,4]diazacyclopentadecin-6-yl)carbamate] | < 5.46 | < 5.46 | – | –
12 | C[C@H]1CC/C=C\[C@@H]2C[C@@]2(C(=O)NS(=O)(=O)C2(C)CC2)NC(=O)[C@@H]2C[C@@H](Oc3ncc(OCC(F)F)c4ccccc34)CN2C(=O)[C@@H](NC(=O)OC(C)(C)C(F)(F)F)[C@H](C)C1 [Compound 1029, 1,1,1-trifluoro-2-methylpropan-2-yl((2R,6S,7R,9S,13aS,14aR,16aS,Z)-2-((4-(2,2-difluoroethoxyl)isoquinolin-1-yl)oxy)-7,9-dimethyl-14a-(((1-methylcyclopropyl)sulfonyl)carbamoyl)-5,16-dioxo-1,2,3,5,6,7,8,9,10,11,13a,14,14a,15,16,16a-hexadecahydrocyclopropa[e]pyrrolo[1,2-a][1,4]diazacyclopentadecin-6-yl)carbamate] | 4.82 to 103 | 4.82 to 103 | – | –
